In patent publication US20250009742A1 (priority 2021, published 2025):

Tests used:
intracellular HBV DNA = assay: Real-time PCR for intracellular HBV DNA in HepAD38 cells; format: cell-based; conditions: Hepatitis B virus, HePAD38, 65 h, 65 hours treatment
Protein = Protein (Hepatitis B virus genotype D subtype ayw, UniProt P03146); assay: Protein inhibition rate / EC50 (Table 1, no method described); format: biochemical
[1] = Cell viability assay (EZ-Cytox), cytotoxicity; format: cell-based; conditions: human, HepAD38 cells; for viability at 65 h, 100 µM: read-out: Cytotoxicity % Livability (@100 μM)
Protocol: HepAD38 cells were cultured for 2 days in Dulbecco's Modified Eagle's medium (Welgene, LM001-05) supplemented with 10% FBS without tetracycline. […] After 65 hours of treatment, viability was measured using EZ-Cytox cell viability assay kit (Daeil Lab Service) according to the manufacturer's instructions. The absorbance was measured at 450 nm using a spectrophotometer (Spark, Tecan).

Sequence of Protein (P03146 whole entry): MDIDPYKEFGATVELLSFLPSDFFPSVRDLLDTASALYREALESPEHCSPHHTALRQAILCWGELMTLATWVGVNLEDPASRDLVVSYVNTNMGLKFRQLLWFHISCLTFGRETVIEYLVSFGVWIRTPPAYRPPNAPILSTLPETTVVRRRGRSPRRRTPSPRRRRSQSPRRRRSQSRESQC

| Structure (SMILES) | IC50 (intracellular HBV DNA) [nM] | EC50 (Protein) [nM] | inhibition at 30 µM (Protein) [%] | CC50 at 65 h [1] [nM] | viability at 65 h, 100 µM [1] [%] | inhibition at 3 µM (Protein; @3 μM (footnote *)) [%] |
| --- | --- | --- | --- | --- | --- | --- |
| COc1ccc(N(Cc2n[nH]c3c2CSCC3)C(=O)Nc2ccc(F)c(Cl)c2)cn1 [Example 45, 3-(3-chloro-4-fluorophenyl)-1-(6-methoxypyridin-3-yl)-1-((1,4,6,7-tetrahydrothiopyrano[4,3-c]pyrazol-3-yl)methyl)urea] | 12 | 3300 | 95.6 | > 50000 | 3.3 |  |
| COc1ccc(N(Cc2cc(C)[nH]n2)C(=O)Nc2ccc(F)c(Cl)c2)cn1 [Example 50, 3-(3-chloro-4-fluorophenyl)-1-(6-methoxypyridin-3-yl)-1-((5-methyl-1H-pyrazol-3-yl)methyl)urea] | 260 | 3800 | 94.3 | > 100000 |  |  |
| O=C(Nc1ccc(F)c(Cl)c1)N(Cc1n[nH]c2c1CCCC2)c1ccon1 [Example 132, 3-(3-chloro-4-fluorophenyl)-1-(isoxazol-3-yl)-1-((4,5,6,7-tetrahydro-1H-indazol-3-yl)methyl)urea] | 55 | 5300 | 86.9 | > 100000 | 81.9 |  |
| O=C(Nc1ccc(F)c(Cl)c1)N(Cc1n[nH]c2c1CCC2)c1ccc(O)cc1 [Example 114, 3-(3-chloro-4-fluorophenyl)-1-(4-hydroxyphenyl)-1-((1,4,5,6-tetrahydrocyclopenta[c]pyrazol-3-yl)methyl)urea] | 14 | 1600 | 74.6 | 54500 | 7.9 |  |
| COc1ccc(N(Cc2n[nH]c3c2CCCO3)C(=O)Nc2ccc(F)c(Cl)c2)cn1 [Example 63, 3-(3-chloro-4-fluorophenyl)-1-(6-methoxypyridin-3-yl)-1-((1,4,5,6-tetrahydropyrano[2,3-c]pyrazol-3-yl)methyl)urea] | 14 | 2600 | 90.5 | > 100000 | 94.5 |  |
| COc1ccc(N(Cc2n[nH]c3c2CCC3)C(=O)Nc2ccc(F)c(Cl)c2)cn1 [Example 41, 3-(3-chloro-4-fluorophenyl)-1-(6-methoxypyridin-3-yl)-1-((1,4,5,6-tetrahydrocyclopenta[c]pyrazol-3-yl)methyl)urea] | 18 | 2600 |  | > 100000 | 97.8 | 59 |
| COc1ccc(N(Cc2n[nH]c3c2CCCC3)C(=O)Nc2ccc(F)c(Cl)c2)cc1OC [Example 116, 3-(3-chloro-4-fluorophenyl)-1-(3,4-dimethoxyphenyl)-1-((4,5,6,7-tetrahydro-1H-indazol-3-yl)methyl)urea] | > 1100 |  | 69.5 | > 100000 | 104 |  |
| COc1ccc(N(Cc2nn(C)c3c2CCCC3)C(=O)Nc2ccc(F)c(Cl)c2)cc1 [Example 36, 3-(3-chloro-4-fluorophenyl)-1-(4-methoxyphenyl)-1-((1-methyl-4,5,6,7-tetrahydro-1H-indazol-3-yl)methyl)urea] | 36 | 9200 | 91.6 | > 100000 | 100 |  |
| CCc1cc(CN(C(=O)Nc2ccc(F)c(Cl)c2)c2ccc(OC)nc2)n[nH]1 [Example 60, 3-(3-chloro-4-fluorophenyl)-1-((5-ethyl-1H-pyrazol-3-yl)methyl)-1-(6-methoxypyridin-3-yl)urea] | 110 | 3000 | 94.7 | > 100000 | 76 |  |
| COC(=O)C1CCc2[nH]nc(CN(C(=O)Nc3ccc(F)c(Cl)c3)c3ccc(OC)nc3)c2C1 (centres unmarked) [Example 53, methyl 3-((3-(3-chloro-4-fluorophenyl)-1-(6-methoxypyridin-3-yl)ureido)methyl)-4,5,6,7-tetrahydro-1H-indazole-5-carboxylate] | > 1100 |  | 20.1 | > 100000 | 58.9 |  |
